Like-named read-outs stand apart in the source and are kept apart here.
Key:
[1] = tested on: 134 cancer cell lines; experiment: Cell viability assay (ATPlite, 72 hours), IC50 on cancer cell line panel
[2] = tested on: 134 cancer cell lines

In the case of `CCN1CCN(c2ccc(Nc3cc(N(C)C(=O)Nc4c(Cl)c(OC)cc(OC)c4Cl)ncn3)cc2)CC1` [infigratinib], the IC50 ([1]; Homo sapiens, MeWo, read-out: IC50 in cell proliferation assay, MeWo cell line) is reported as > 3.16 µM, the IC50 ([1]; Homo sapiens, NCCIT, read-out: IC50 in cell proliferation assay, NCC-IT cell line) is reported as 0.466 µM and the IC50 ([1]; Homo sapiens, NCI-H82, read-out: IC50 in cell proliferation assay, cell line NCI-H82) is reported as > 3.16 µM. The IC50 ([1]; Homo sapiens, NCI-H460, read-out: IC50 in cell proliferation assay, NCI-H460 cell line) was > 3.16 µM, the IC50 ([1]; Homo sapiens, NCI-H661, read-out: IC50 in cell proliferation assay, NCI-H661 cell line) was > 3.16 µM and the IC50 ([1]; Homo sapiens, NCI-H716, read-out: IC50 in cell proliferation assay, cell line NCI-H716 (FGFR2-COL14A1)) was 0.02 µM. The IC50 ([1]; Homo sapiens, NCI-H1650, read-out: IC50 in cell proliferation assay, NCI-H1650 cell line (EGFR exon19del)) was 5.09 µM, the IC50 ([1]; Homo sapiens, NCI-H1975, read-out: IC50 in cell proliferation assay, NCI-H1975 cell line (EGFR p.L858R + p.T790M)) was > 3.16 µM and the IC50 ([1]; Homo sapiens, NCI-H2228, read-out: IC50 in cell proliferation assay, NCI-H2228 cell line (EML4-ALK)) was 4.38 µM. For the same molecule, the IC50 ([1]; Homo sapiens, OVCAR-3, read-out: IC50 in cell proliferation assay, cell line OVCAR-3) was > 3.16 µM, the IC50 ([1]; Homo sapiens, PFSK-1, read-out: IC50 in cell proliferation assay, cell line PFSK-1) was > 3.16 µM and the IC50 ([1]; Homo sapiens, RL95-2, read-out: IC50 in cell proliferation assay, cell line RL95-2 (EGFR p.A289V)) was > 3.16 µM. The IC50 ([1]; Homo sapiens, RPMI-7951, read-out: IC50 in cell proliferation assay, cell line RPMI-7951 (BRAF p.V600E)) was > 3.16 µM, the IC50 ([1]; Homo sapiens, RS4-11, read-out: IC50 in cell proliferation assay, cell line RS4;11) was > 3.16 µM and the IC50 ([1]; Homo sapiens, Rec1, read-out: IC50 in cell proliferation assay, cell line REC-1) was 4 µM. For the same molecule, the IC50 ([1]; Homo sapiens, SHP77, read-out: IC50 in cell proliferation assay, cell line SHP-77) was > 3.16 µM, the IC50 ([1]; Homo sapiens, SK-BR-3, read-out: IC50 in cell proliferation assay, cell line SK-BR-3 (ERBB2 amplification)) was > 3.16 µM and the IC50 ([1]; Homo sapiens, SK-N-AS, read-out: IC50 in cell proliferation assay, cell line SK-N-AS) was > 3.16 µM. For the same molecule, the IC50 ([1]; Homo sapiens, SK-N-FI, read-out: IC50 in cell proliferation assay, cell line SK-N-FI) was > 3.16 µM, the IC50 ([1]; Homo sapiens, SK-N-MC, read-out: IC50 in cell proliferation assay, cell line SK-N-MC) was 3.21 µM and the IC50 ([1]; Homo sapiens, SK-N-SH, read-out: IC50 in cell proliferation assay, cell line SK-N-SH (ALK p.F1174L)) was 4.47 µM. The IC50 ([1]; Homo sapiens, SNU-5, read-out: IC50 in cell proliferation assay, cell line SNU-5 (MET amplification)) was > 3.16 µM, the IC50 ([1]; Homo sapiens, SNU-16, read-out: IC50 in cell proliferation assay, cell line SNU-16 (FGFR2 amplification)) was 0.028 µM and the IC50 ([1]; Homo sapiens, SNU-C2B, read-out: IC50 in cell proliferation assay, cell line SNU-C2B (EGFR p.R165Q)) was > 3.16 µM. The IC50 ([1]; Homo sapiens, SU-DHL-1, read-out: IC50 in cell proliferation assay, cell line SU-DHL-1 (NPM1-ALK)) was > 3.16 µM, the IC50 ([1]; Homo sapiens, SU-DHL-6, read-out: IC50 in cell proliferation assay, cell line SU-DHL-6) was > 3.16 µM and the IC50 ([1]; Homo sapiens, SUP-T1, read-out: IC50 in cell proliferation assay, cell line SUP-T1) was > 3.16 µM. The IC50 ([1]; Homo sapiens, SW48, read-out: IC50 in cell proliferation assay, cell line SW48 (EGFR p.G719S)) was > 3.16 µM, the IC50 ([1]; Homo sapiens, SW480, read-out: IC50 in cell proliferation assay, cell line SW480) was > 3.16 µM and the IC50 ([1]; Homo sapiens, SW626, read-out: IC50 in cell proliferation assay, cell line SW626) was > 3.16 µM. For the same molecule, the IC50 ([1]; Homo sapiens, SW780, read-out: IC50 in cell proliferation assay, cell line SW780 (FGFR3-BAIAP2L1)) was 0.039 µM, the IC50 ([1]; Homo sapiens, SW837, read-out: IC50 in cell proliferation assay, cell line SW837) was > 3.16 µM and the IC50 ([1]; Homo sapiens, SW872, read-out: IC50 in cell proliferation assay, cell line SW872 (BRAF p.V600E)) was > 3.16 µM. For the same molecule, the IC50 ([1]; Homo sapiens, SW900, read-out: IC50 in cell proliferation assay, cell line SW900) was > 3.16 µM, the IC50 ([1]; Homo sapiens, SW948, read-out: IC50 in cell proliferation assay, cell line SW948) was > 3.16 µM and the IC50 ([1]; Homo sapiens, SW982, read-out: IC50 in cell proliferation assay, cell line SW982 (BRAF p.V600E)) was > 3.16 µM. The IC50 ([1]; Homo sapiens, SW-620, read-out: IC50 in cell proliferation assay, cell line SW620) was > 3.16 µM, the IC50 ([1]; Homo sapiens, T98G, read-out: IC50 in cell proliferation assay, cell line T98G) was 0.135 µM and the IC50 ([1]; Homo sapiens, TCC-SUP, read-out: IC50 in cell proliferation assay, cell line TCCSUP) was > 3.16 µM. The IC50 ([1]; Homo sapiens, THP-1, read-out: IC50 in cell proliferation assay, cell line THP-1) was > 3.16 µM, the IC50 ([1]; Homo sapiens, U2OS, read-out: IC50 in cell proliferation assay, cell line U2OS) was > 3.16 µM and the IC50 ([1]; Homo sapiens, U-87 MG, read-out: IC50 in cell proliferation assay, cell line U-87MG ATCC) was > 3.16 µM. For the same molecule, the IC50 ([1]; Homo sapiens, U-118-MG, read-out: IC50 in cell proliferation assay, cell line U-118MG) was > 3.16 µM, the IC50 ([1]; Homo sapiens, UMUC3, read-out: IC50 in cell proliferation assay, cell line UM-UC-3) was 0.625 µM and the IC50 ([1]; Hs766T, read-out: IC50 in cell proliferation assay, Hs 766T cell line) was > 3.16 µM. The IC50 ([1]; Rh30, read-out: IC50 in cell proliferation assay, cell line Rh30) was 0.525 µM, the IC50 ([1]; read-out: IC50 in cell proliferation assay, 11-18 cell line (EGFR p.L858R)) was > 3.16 µM and the IC50 ([1]; read-out: IC50 in cell proliferation assay, Hs 852.T cell line) was 5.37 µM. For the same molecule, the IC50 ([1]; read-out: IC50 in cell proliferation assay, JAR cell line) was 2.99 µM, the IC50 ([1]; read-out: IC50 in cell proliferation assay, cell line 5637) was > 3.16 µM and the IC50 ([1]; read-out: IC50 in cell proliferation assay, cell line A-388) was > 3.16 µM. For the same molecule, the IC50 ([1]; read-out: IC50 in cell proliferation assay, cell line DB) was > 3.16 µM, the IC50 ([1]; read-out: IC50 in cell proliferation assay, cell line DEL (NPM1-ALK)) was 3.51 µM and the IC50 ([1]; read-out: IC50 in cell proliferation assay, cell line ES-2 (BRAF p.V600E)) was > 3.16 µM. For the same molecule, the IC50 ([1]; read-out: IC50 in cell proliferation assay, cell line PA-1) was 2.15 µM, the IC50 ([1]; read-out: IC50 in cell proliferation assay, cell line PC-3) was > 3.16 µM and the IC50 ([1]; read-out: IC50 in cell proliferation assay, cell line RD) was > 3.16 µM. The IC50 ([1]; read-out: IC50 in cell proliferation assay, cell line RKO (BRAF p.V600E)) was > 3.16 µM, the IC50 ([1]; read-out: IC50 in cell proliferation assay, cell line RL) was > 3.16 µM and the IC50 ([1]; read-out: IC50 in cell proliferation assay, cell line RT-4 (FGFR3-TACC3)) was 0.014 µM. For the same molecule, the IC50 ([1]; read-out: IC50 in cell proliferation assay, cell line SR (NPM1-ALK)) was > 3.16 µM, the IC50 ([1]; read-out: IC50 in cell proliferation assay, cell line T24) was > 3.16 µM and the IC50 ([1]; read-out: IC50 in cell proliferation assay, cell line TT (RET p.C634W)) was > 3.16 µM. For the same molecule, the IC50 ([1]; read-out: IC50 in cell proliferation assay, cell line VA-ES-BJ) was > 3.16 µM and the IC50 [2] was > 3.16 µM.

Reference: publication PMC9516332 (Frontiers in Oncology, 2022)
